What was measured:
[1] = tested on: THP-1; assay: Cell viability assay (XTT); type: cell-based; conditions: Homo sapiens; THP-1, XTT, up to 72 hr
Procedure: (§1) A panel of BET-sensitive and insensitive cell lines were profiled for effect on cell viability using compound 3. Cells were cultured in the presence of inhibitors at various concentrations for up to 72 hr. For cell viability assays as previously described (Guo Y, et al. 2012. J Hematol Oncol 5:72; Chen Y, et al. 2016. Oncogene 35:2971-8), 0.08 mg/ml XTT (2,3-bis-(2-methoxy-4-nitro-5-sulfophenyl)-2H-tetrazolium-5-carboxanilide) and 8 μM phenazine methyl sulfate (PMS) were added to the cells at the end of the test compound or vehicle treatment duration, and absorbance at 450 nm was measured after 3 hr incubation at 37° C. Assays were performed in triplicates. IC50 values were estimated using a non-linear mixed effect model fitting a sigmoid curve to the experimental dose response data (Vis D J, et al. 2016. Pharmacogenomics 17(7):691-700).

[2] = tested on: OCI-LY18; assay: Cell viability assay (XTT); type: cell-based; conditions: Homo sapiens, up to 72 hr
Procedure: as §1

[3] = tested on: MV4-11 cells; assay: Cell viability assay after wash-off (FITC-annexin V / 7-AAD flow cytometry); type: cell-based, human; conditions: MV4-11, 0.5 or 2 μM for 2 or 4 hr, total 48 hr
Procedure: MV4-11 cells were incubated with compound (at a concentration of 0.5 or 2 μM) or mivebresib (at a concentration of 0.5 or 2 μM) for 2 or 4 hr before wash-off with culture medium and re-plated in fresh culture medium for a total of 48 hr. Cells were stained with FITC-annexin V and 7-AAD before flow cytometric analysis using a Stratedigm flow cytometer. Viable cells are negative for FITC-annexin V and 7-AAD.

[4] = tested on: c-Myc; assay: Measurement of c-Myc suppression after washoff (Western blot); type: cell-based, human; conditions: MV4-11, 2 μM for 2 hr, washed, further 6 hr
Procedure: MV4-11 cells were incubated with 2 μM of JQ1, mivebresib or a test compound for 2 hr. The cells were then washed twice with fresh culture medium and further cultured for another 6 hr. Cells were extracted with SDS sample buffers and then subjected to Western blot analysis to measure c-Myc. Compounds 2, 3, 12, 17, 409, 411 and 412 were tested in these assays.

IC50 [1]: 250 nM | IC50 [2]: 420 nM
Compound: C=CS(=O)(=O)Nc1ccc(Oc2ccc(F)cc2F)c(-c2cc(NC)c(=O)n(C)c2)c1 [Compound 3, N-(4-(2,4-difluorophenoxy)-3-(1-methyl-5-(methylamino)-6-oxo-1,6-dihydropyridin-3-yl)phenyl)ethenesulfonamide]
cell inhibition activity after transient exposure (viable cells after wash-off) [3]: sustained cell inhibition activity | c-Myc suppression activity after washoff [4]: sustained c-Myc suppression activity
